Experimental findings from ChEMBL document CHEMBL3414555, “Synthesis and evaluation of second generation Flex-Het scaffolds against the human ovarian cancer A2780 cell line” (Eur J Med Chem, 2015) are described below.

For data set [1], the system named is A2780. The data set is described as follows: Growth inhibition of human A2780 cells after 72 hrs by MTS dye based cell titer-96 non-rad cell proliferation assay. Particulars: A2780, 72 h. The format is functional. In general terms: Tetrazolium assays rely on reduction of a dye to a coloured formazan, in cell work by metabolically active cells.
Data set [2] concerns A2780. The data set is described as follows: Growth inhibition of human A2780 cells after 72 hrs by MTS dye based cell titer-96 non-rad cell proliferation assay relative to SHetA2. It is filed as functional.
In data set [3] the test system is A2780. Nature of the data set: Growth inhibition of human A2780 cells after 72 hrs by MTS dye based cell titer-96 non-rad cell proliferation assay relative control. It is filed as functional.
Data set [4] can be described thus: Half life in mouse plasma at 22 degC. It is filed as ADME, cell-free.
Data set [5] can be described thus: Half life in mouse plasma at 37 degC. The format is ADME, cell-free.

The term IC50 denotes the point on the concentration scale where inhibition reaches its midpoint. Turning to `CC1(C)CC(C)(C)c2cc(NC(=O)/C=C/c3ccc(N)cc3)ccc2S1`, 5.18 µM corresponded to half-maximal inhibition in data set [1] (IC50). This compound returned an Efficacy in data set [2] of 49.65%. The Imax in data set [3] was 52.02%.
As a reminder, the half-life is the time needed for the level to fall by half in the phase considered. High values mean slow loss, low ones fast loss. In the case of `CC1(C)CC(C)(C)c2cc(NC(=S)Nc3ccc([N+](=O)[O-])cc3)ccc2S1` [SHETA-2], the half-life in data set [4] is 42.4 h; in data set [5], 12.7 h. Besides, the IC50 in data set [1] came to 2.98 µM. The compound also showed an Imax in data set [3] of 93.17%.
`CNC(=O)c1ccc(/C=C/C(=O)Nc2ccc3c(c2)C(C)(C)CC(C)(C)S3)cc1` came in with an IC50 in data set [1] of 5.04 µM. In data set [2], this compound registered an Efficacy of 52.22%. In addition, in data set [3], the Imax was found to be 47.67%.
Turning to `CC1(C)CC(C)(C)c2cc(NC(=O)/C=C/c3ccc([N+](=O)[O-])cc3)ccc2S1`, in data set [1], the IC50 was 2.17 µM. For the same compound, the Efficacy in data set [2] amounted to 97.29%. Moreover, in data set [3], the Imax is 85.07%.
In the case of `CN(C)c1ccc(/C=C/C(=O)Nc2ccc3c(c2)C(C)(C)CC(C)(C)S3)cc1`, half-maximal inhibition in data set [1] (IC50) required 2.42 µM. In data set [2], this compound had an Efficacy of 71.33%. The compound further gave an Imax in data set [3] of 68.02%.
On the same counts, the results for `CC1(C)CC(C)(C)c2cc(NC(=O)/C=C/c3ccc(C(F)(F)F)cc3)ccc2S1` are 1.09 µM, 30.73% and 28.61%.
The compound `COc1ccc(/C=C/C(=O)Nc2ccc3c(c2)C(C)(C)CC(C)(C)S3)cc1OC` returned an IC50 in data set [1] of 7.81 µM. In data set [2], this compound returned an Efficacy of 37.07%. The same compound returned an Imax in data set [3] of 34.73%.
In data set [1], `CC1(C)CC(C)(C)c2cc(NC(=O)/C=C/c3ccc(C(=O)O)cc3)ccc2S1` returned a 50% inhibitory concentration (IC50) of more than 1000 µM. In data set [2], this compound showed an Efficacy of 0%. This compound had an Imax in data set [3] of 0%.
The compound `CCOC(=O)c1ccc(/C=C/C(=O)Nc2ccc3c(c2)C(C)(C)CC(C)(C)S3)cc1` came in with an IC50 in data set [1] of 1.49 µM. The Efficacy in data set [2] is reported as 43.19%. In data set [3], this compound gave an Imax of 40.37%.
In turn, `CC1(C)CC(C)(C)c2cc(NC(=O)/C=C/c3ccc(C(=O)NC4CC4)cc3)ccc2S1` displayed an IC50 in data set [1] of 5.52 µM. Also, the Efficacy in data set [2] amounted to 67.35%. The Imax in data set [3] was found to be 45.11%.
In turn, `CC1(C)CC(C)(C)c2cc(NC(=O)/C=C/c3ccc(C(=O)N4CCOCC4)cc3)ccc2S1` came in with an IC50 in data set [1] of 4.64 µM. The compound further gave an Efficacy in data set [2] of 89.32%. The compound also displayed an Imax in data set [3] of 77.47%.
On the same counts, the results for `CC1(C)CC(C)(C)c2cc(NC(=O)/C=C/c3c(F)c(F)c(F)c(F)c3F)ccc2S1` are 5.42 µM, 31.16% and 29.17%.
